From PubChem BioAssay AID248 (DTP/NCI, 2004)
Where “and” joins values, the source holds several entries; their conditions need not be identical. Equal entries are not always repeated. Inconclusive results and toxic doses are left out. No stated cut-off is given here; in the data, active means T/C of 150% or more; inactive means T/C below 125%.

Tested on: L1210 leukemia ip in BDF1 mice, survival T/C
Assay: NCI In Vivo Anticancer Drug Screen. Data for tumor model L1210 Leukemia (intraperitoneal) in B6D2F1 (BDF1) mice
Details: endpoint: mean survival time, higher = longer survival
Outline: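 Transplantable tumor model; survival measured in treated vs vehicle control mice. Value = treated/control.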

[1] = dose: 50.0 mg/kg/injection, schedule: Q01DX001 (ip), vehicle: saline
[2] = dose: 100.0 mg/kg/injection, schedule: Q01DX001 (ip), vehicle: saline
[3] = dose: 200.0 mg/kg/injection, schedule: Q01DX001 (ip), vehicle: saline
[4] = dose: 400.0 mg/kg/injection, schedule: Q01DX001 (ip), vehicle: saline
[5] = dose: 100.0 mg/kg/injection, schedule: Q04DX003 (ip), vehicle: saline with Tween-80
[6] = dose: 200.0 mg/kg/injection, schedule: Q04DX003 (ip), vehicle: saline with Tween-80
[7] = dose: 400.0 mg/kg/injection, schedule: Q04DX003 (ip), vehicle: saline with Tween-80
[8] = dose: 100.0 mg/kg/injection, schedule: Q01DX009 (ip), vehicle: Klucel (hydroxypropylcellulose) (HPC)
[9] = dose: 200.0 mg/kg/injection, schedule: Q01DX009 (ip), vehicle: Klucel (hydroxypropylcellulose) (HPC)
[10] = dose: 400.0 mg/kg/injection, schedule: Q01DX009 (ip), vehicle: Klucel (hydroxypropylcellulose) (HPC)
[11] = dose: 100.0 mg/kg/injection, schedule: Q04DX003 (ip), vehicle: Klucel (hydroxypropylcellulose) (HPC)
[12] = dose: 200.0 mg/kg/injection, schedule: Q04DX003 (ip), vehicle: Klucel (hydroxypropylcellulose) (HPC)
[13] = dose: 400.0 mg/kg/injection, schedule: Q04DX003 (ip), vehicle: Klucel (hydroxypropylcellulose) (HPC)

Measured: T/C

CCOP(=O)(/N=C1/C2CCC(C2)C1C)OCC (stereo unspecified)
inactive: dose: 12.5 mg/kg/injection, schedule: Q04DX003 (ip), vehicle: saline 94 % of control | dose: 25.0 mg/kg/injection, schedule: Q04DX003 (ip), vehicle: saline 105 % of control | dose: 50.0 mg/kg/injection, schedule: Q04DX003 (ip), vehicle: saline 102 % of control

N#Cc1ccccc1CC(=O)c1ccccc1
inactive: [1] 101 % of control | [2] 97 % of control | [3] 93 % of control | [4] 100 % of control

O=C(O)C(F)(F)C(F)(Cl)C(F)(F)C(F)(Cl)C(F)(F)C(F)(Cl)C(F)(F)Cl (stereo unspecified) (tested in a mixture with another compound)
inactive: dose: 100.0 mg/kg/injection, schedule: Q04DX003 (ip), vehicle: saline 90 % of control | dose: 200.0 mg/kg/injection, schedule: Q04DX003 (ip), vehicle: saline 101 % of control | dose: 400.0 mg/kg/injection, schedule: Q04DX003 (ip), vehicle: saline 101 % of control

CCCCCCCN(CCCCCCC)CC(O)c1cc2ccc(Cl)cc2c2ncccc12 (stereo unspecified)
inactive: dose: 100.0 mg/kg/injection, schedule: Q01DX009 (sc), vehicle: olive oil, sesame oil, peanut oil 109 % of control | dose: 200.0 mg/kg/injection, schedule: Q01DX009 (sc), vehicle: olive oil, sesame oil, peanut oil 108 % of control | dose: 400.0 mg/kg/injection, schedule: Q01DX009 (sc), vehicle: olive oil, sesame oil, peanut oil 95 % of control

CC(C)CC(O)CC(C)C
inactive: [5] 95 % of control | dose: 118.0 mg/kg/injection, schedule: Q01DX009 (ip), vehicle: saline with Tween-80 108 % of control | [6] 93 % of control | dose: 250.0 mg/kg/injection, schedule: Q01DX009 (ip), vehicle: saline with Tween-80 102 % of control | [7] 90 % of control

Nc1ncnc(N)c1NC(=O)c1ccc(OCCCOc2ccccc2)c(Cl)c1
inactive: dose: 100.0 mg/kg/injection, schedule: Q01DX001 (ip), vehicle: carboxymethylcellulose (CMC) 96 % of control | dose: 200.0 mg/kg/injection, schedule: Q01DX001 (ip), vehicle: carboxymethylcellulose (CMC) 101 % of control | dose: 400.0 mg/kg/injection, schedule: Q01DX001 (ip), vehicle: carboxymethylcellulose (CMC) 96 % of control

NNc1c(C(N)=O)c2c(N)ncnc2n1C1OC(CO)C(O)C1O (stereo unspecified)
inactive: dose: 100.0 mg/kg/injection, schedule: Q01DX005 (ip), vehicle: saline 96 % of control | dose: 200.0 mg/kg/injection, schedule: Q01DX005 (ip), vehicle: saline 100 % of control

Cc1[nH]c(C(=O)OCc2ccccc2)c(C)c1C(=O)OCc1ccccc1
inactive: dose: 12.0 mg/kg/injection, schedule: Q01DX001 (ip), vehicle: Klucel (hydroxypropylcellulose) (HPC) 94 % of control | dose: 25.0 mg/kg/injection, schedule: Q01DX001 (ip), vehicle: Klucel (hydroxypropylcellulose) (HPC) 100 % of control | dose: 50.0 mg/kg/injection, schedule: Q01DX001 (ip), vehicle: Klucel (hydroxypropylcellulose) (HPC) 97 % of control | dose: 200.0 mg/kg/injection, schedule: Q01DX001 (ip), vehicle: saline with Tween-80 102 % of control | dose: 400.0 mg/kg/injection, schedule: Q01DX001 (ip), vehicle: saline with Tween-80 102 % of control

Cn1c(N)c(C(C[N+](=O)[O-])c2ccccc2)c(=O)n(C)c1=O (stereo unspecified)
inactive: dose: 50.0 mg/kg/injection, schedule: Q01DX009 (ip), vehicle: Klucel (hydroxypropylcellulose) (HPC) 95 % of control | [8] 92 % of control | [9] 98 % of control

Cc1ccc(-n2c(=O)c(N=Nc3ccccc3C)c(O)n(-c3ccccc3C)c2=S)cc1
inactive: dose: 37.5 mg/kg/injection, schedule: Q01DX001 (ip), vehicle: Klucel (hydroxypropylcellulose) (HPC) 95 % of control | dose: 75.0 mg/kg/injection, schedule: Q01DX001 (ip), vehicle: Klucel (hydroxypropylcellulose) (HPC) 103 % of control | dose: 150.0 mg/kg/injection, schedule: Q01DX001 (ip), vehicle: Klucel (hydroxypropylcellulose) (HPC) 100 % of control

CC(C(OC(=O)Nc1ccc(Cl)c(Cl)c1)c1ccc(F)cc1)C(O)(C(F)(F)F)C(F)(F)F (stereo unspecified)
inactive: [8] 93 % of control | [9] 93 % of control | [10] 91 % of control

S=C(S)NCCCNC(=S)S
inactive: [2] 98 % of control and 103 % of control | [3] 95 % of control and 100 % of control | [4] 95 % of control

OC(c1ccc(Cl)cc1)c1ccc(Cl)cc1
inactive: dose: 75.0 mg/kg/injection, schedule: Q01DX001 (ip), vehicle: acetone 97 % of control | dose: 150.0 mg/kg/injection, schedule: Q01DX001 (ip), vehicle: acetone 97 % of control | dose: 300.0 mg/kg/injection, schedule: Q01DX001 (ip), vehicle: acetone 94 % of control

O=C(O)CCC(=O)c1ccc2ccccc2c1
inactive: [11] 100 % of control | [12] 91 % of control | [13] 92 % of control

O=c1ccc2c([nH]1)CCCCC2
inactive: [11] 106 % of control | [12] 100 % of control | [13] 95 % of control

CC/C=C/c1cccc(OC)c1
inactive: [8] 102 % of control | [11] 105 % of control | [9] 96 % of control | [12] 110 % of control | [10] 95 % of control | [13] 96 % of control

CC[N+](C)(C)CCC#N
inactive: dose: 10.0 mg/kg/injection, schedule: Q01DX001 (ip), vehicle: saline 95 % of control | dose: 20.0 mg/kg/injection, schedule: Q01DX001 (ip), vehicle: saline 101 % of control | dose: 40.0 mg/kg/injection, schedule: Q01DX001 (ip), vehicle: saline 101 % of control

CC(C)(NC(=O)c1ccccc1)C(=O)O
inactive: dose: 50.0 mg/kg/injection, schedule: Q04DX003 (ip), vehicle: Klucel (hydroxypropylcellulose) (HPC) 106 % of control | [11] 96 % of control | [12] 88 % of control

O=C(CC(O)(C(F)(F)F)C(F)(F)F)c1cccnc1
inactive: [8] 98 % of control | [5] 101 % of control | [9] 104 % of control | [6] 103 % of control | [10] 101 % of control | [7] 103 % of control

C/C(=C/c1c(C)cc(C)c(NC(=O)c2ccc([N+](=O)[O-])cc2)c1C)CBr
inactive: dose: 100.0 mg/kg/injection, schedule: Q01DX001 (ip), vehicle: Klucel (hydroxypropylcellulose) (HPC) 93 % of control | [11] 97 % of control | dose: 200.0 mg/kg/injection, schedule: Q01DX001 (ip), vehicle: Klucel (hydroxypropylcellulose) (HPC) 102 % of control | [12] 92 % of control | dose: 400.0 mg/kg/injection, schedule: Q01DX001 (ip), vehicle: Klucel (hydroxypropylcellulose) (HPC) 96 % of control | [13] 92 % of control

O=C(Nc1ccc(C2=NCCN2)cc1)c1ccc2cc(C(=O)Nc3ccc(C4=NCCN4)cc3)ccc2c1
inactive: dose: 15.0 mg/kg/injection, schedule: Q01DX Z (ip), vehicle: carboxymethylcellulose (CMC) 123 % of control | dose: 120.0 mg/kg/injection, schedule: Q01DX Z (ip), vehicle: carboxymethylcellulose (CMC) 120 % of control

SCCCCN1CCCCC1
inactive: dose: 3.0 mg/kg/injection, schedule: Q01DX001 (ip), vehicle: carboxymethylcellulose (CMC) 102 % of control | dose: 6.0 mg/kg/injection, schedule: Q01DX001 (ip), vehicle: carboxymethylcellulose (CMC) 100 % of control | dose: 12.0 mg/kg/injection, schedule: Q01DX001 (ip), vehicle: carboxymethylcellulose (CMC) 107 % of control | dose: 25.0 mg/kg/injection, schedule: Q01DX001 (ip), vehicle: carboxymethylcellulose (CMC) 95 % of control

ClCCCSCCCCl
inactive: [1] 103 % of control | [2] 112 % of control | [3] 124 % of control | [4] 95 % of control

Cc1ccc(S(=O)(=O)N2CCN(C)CC2)cc1
inactive: [2] 103 % of control | [3] 97 % of control | [4] 97 % of control
